# Measured values from ChEMBL document CHEMBL3994622, “Design and synthesis of new RAF kinase-inhibiting antiproliferative quinoline derivatives. Part 2: Diarylurea derivatives” (Eur J Med Chem, 2017).
# Columns and labels:
# UACC-62 = test: Growth inhibition of human UACC62 cells incubated for 48 hrs by sulforhodamine B assay; assay type: functional; settings: UACC-62, 48 h
# RPMI-8226 = test: Growth inhibition of human RPMI8226 cells incubated for 48 hrs by sulforhodamine B assay; assay type: functional; settings: RPMI-8226, 48 h
# Malme-3M = test: Growth inhibition of human MALME-3M cells incubated for 48 hrs by sulforhodamine B assay; assay type: functional
# SNB-75 = test: Growth inhibition of human SNB75 cells incubated for 48 hrs by sulforhodamine B assay; assay type: functional; settings: SNB-75, 48 h
# BT-549 = test: Growth inhibition of human BT549 cells incubated for 48 hrs by sulforhodamine B assay; assay type: functional; settings: BT-549, 48 h
# CCRF-CEM = test: Growth inhibition of human CCRF-CEM cells incubated for 48 hrs by sulforhodamine B assay; assay type: functional
# PC-3 = test: Growth inhibition of human PC3 cells incubated for 48 hrs by sulforhodamine B assay; assay type: functional; settings: PC-3, 48 h
# KM12 = test: Growth inhibition of human KM12 cells incubated for 48 hrs by sulforhodamine B assay; assay type: functional; settings: KM12, 48 h
# A498 = test: Growth inhibition of human A498 cells incubated for 48 hrs by sulforhodamine B assay; assay type: functional; settings: A498, 48 h
# HCT-15 = test: Growth inhibition of human HCT15 cells incubated for 48 hrs by sulforhodamine B assay; assay type: functional; settings: HCT-15, 48 h
# 786-0 = test: Growth inhibition of human 786-0 cells incubated for 48 hrs by sulforhodamine B assay; assay type: functional; settings: 786-0, 48 h
# LOX IMVI = test: Growth inhibition of human LOXIMVI cells incubated for 48 hrs by sulforhodamine B assay; assay type: functional
# UO-31 = test: Growth inhibition of human UO31 cells incubated for 48 hrs by sulforhodamine B assay; assay type: functional; settings: UO-31, 48 h
# HT-29 = test: Growth inhibition of human HT-29 cells incubated for 48 hrs by sulforhodamine B assay; assay type: functional; settings: HT-29, 48 h
# ACHN = test: Growth inhibition of human ACHN cells incubated for 48 hrs by sulforhodamine B assay; assay type: functional
# OVCAR-3 = test: Growth inhibition of human OVCAR3 cells incubated for 48 hrs by sulforhodamine B assay; assay type: functional; settings: OVCAR-3, 48 h
# SN12C = test: Growth inhibition of human SN12C cells incubated for 48 hrs by sulforhodamine B assay; assay type: functional
# EKVX = test: Growth inhibition of human EKVX cells incubated for 48 hrs by sulforhodamine B assay; assay type: functional
# HCC 2998 = test: Growth inhibition of human HCC2998 cells incubated for 48 hrs by sulforhodamine B assay; assay type: functional; settings: HCC 2998, 48 h
# DU-145 = test: Growth inhibition of human DU145 cells incubated for 48 hrs by sulforhodamine B assay; assay type: functional; settings: DU-145, 48 h
# T47D = test: Growth inhibition of human T47D cells incubated for 48 hrs by sulforhodamine B assay; assay type: functional
# SK-MEL-2 = test: Growth inhibition of human SK-MEL-2 cells incubated for 48 hrs by sulforhodamine B assay; assay type: functional; settings: SK-MEL-2, 48 h
# HOP-62 = test: Growth inhibition of human HOP62 cells incubated for 48 hrs by sulforhodamine B assay; assay type: functional; settings: HOP-62, 48 h
# HL-60(TB) = test: Growth inhibition of human HL-60(TB) cells incubated for 48 hrs by sulforhodamine B assay; assay type: functional; settings: HL-60, 48 h
# RXF 393 = test: Growth inhibition of human RXF393 cells incubated for 48 hrs by sulforhodamine B assay; assay type: functional; settings: RXF 393, 48 h
# NCI-H226 = test: Growth inhibition of human NCI-H226 cells incubated for 48 hrs by sulforhodamine B assay; assay type: functional; settings: NCI-H226, 48 h
# SNB-19 = test: Growth inhibition of human SNB19 cells incubated for 48 hrs by sulforhodamine B assay; assay type: functional; settings: SNB-19, 48 h
# OVCAR-4 = test: Growth inhibition of human OVCAR4 cells incubated for 48 hrs by sulforhodamine B assay; assay type: functional; settings: OVCAR-4, 48 h
# Hs-578T = test: Growth inhibition of human Hs 578T cells incubated for 48 hrs by sulforhodamine B assay; assay type: functional
# SR = test: Growth inhibition of human SR cells incubated for 48 hrs by sulforhodamine B assay; assay type: functional
# M14 = test: Growth inhibition of human M14 cells incubated for 48 hrs by sulforhodamine B assay; assay type: functional; settings: M14, 48 h
# [1] = biological target: RAF proto-oncogene serine/threonine-protein kinase (Homo sapiens, UniProt P04049); test: Inhibition of human c-RAF at 10 uM using MEK1 as substrate in presence of [33P]ATP by Hotspot assay relative to control
# SK-MEL-5 = test: Growth inhibition of human SK-MEL-5 cells incubated for 48 hrs by sulforhodamine B assay; assay type: functional; settings: SK-MEL-5, 48 h
# [2] = read-out: LC50 (the source's name)
# RAF proto-oncogene serine/threonine-protein kinase, sequence (P04049 whole entry): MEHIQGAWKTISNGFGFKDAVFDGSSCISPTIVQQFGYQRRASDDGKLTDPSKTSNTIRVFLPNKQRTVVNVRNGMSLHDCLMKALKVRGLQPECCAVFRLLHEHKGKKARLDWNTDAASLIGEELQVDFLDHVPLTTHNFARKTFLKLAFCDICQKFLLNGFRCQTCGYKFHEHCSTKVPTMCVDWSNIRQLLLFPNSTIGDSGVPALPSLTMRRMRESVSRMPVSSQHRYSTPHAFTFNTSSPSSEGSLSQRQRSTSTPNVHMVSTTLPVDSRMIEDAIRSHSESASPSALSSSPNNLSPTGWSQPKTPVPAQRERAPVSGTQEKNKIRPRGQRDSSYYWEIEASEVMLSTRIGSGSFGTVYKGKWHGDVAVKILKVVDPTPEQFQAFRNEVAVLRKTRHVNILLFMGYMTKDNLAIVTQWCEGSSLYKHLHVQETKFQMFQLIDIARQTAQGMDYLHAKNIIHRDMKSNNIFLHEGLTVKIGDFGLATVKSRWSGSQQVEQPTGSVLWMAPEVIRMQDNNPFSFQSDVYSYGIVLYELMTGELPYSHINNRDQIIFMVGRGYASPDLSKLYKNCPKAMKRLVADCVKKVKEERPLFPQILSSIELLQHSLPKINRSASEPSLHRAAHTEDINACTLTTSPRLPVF
compound,measurement,setting,value
COc1cc2cc(Oc3ccc(NC(=O)Nc4cc(C(F)(F)F)cc(C(F)(F)F)c4)cc3)c(C)nc2cc1OC,GI50,UACC-62,0.56 µM
same,TGI,UACC-62,2.09 µM
same,CC50,UACC-62; [2],6.03 µM
same,GI50,RPMI-8226,0.41 to 0.46 µM
same,"LC50 (lethal concentration, 50% cell kill)",RPMI-8226,> 100 µM
same,TGI,RPMI-8226,5.51 µM
same,GI50,Malme-3M,1.1 µM
same,TGI,Malme-3M,3.46 µM
same,CC50,Malme-3M; [2],13.6 µM
same,GI50,SNB-75,1.73 µM
same,TGI,SNB-75,5.05 µM
same,CC50,SNB-75; [2],> 100 µM
same,GI50,BT-549,1.75 µM
same,TGI,BT-549,3.76 µM
same,CC50,BT-549; [2],30.1 µM
same,GI50,CCRF-CEM,0.64 µM
same,TGI,CCRF-CEM,3.47 µM
same,CC50,CCRF-CEM; [2],> 100 µM
same,GI50,PC-3,0.42 µM
same,TGI,PC-3,2.48 µM
same,CC50,PC-3; [2],32.4 µM
same,GI50,KM12,0.918 to 0.92 µM
same,TGI,KM12,2.46 µM
same,CC50,KM12; [2],6.27 µM
same,GI50,A498,1.6 µM
same,TGI,A498,4.29 µM
same,CC50,A498; [2],7.98 µM
same,GI50,HCT-15,0.668 to 0.67 µM
same,"LC50 (lethal concentration, 50% net cell kill)",HCT-15,4.91 µM
same,TGI,HCT-15,2.04 µM
same,GI50,786-0,1.61 µM
same,TGI,786-0,3.09 µM
same,CC50,786-0; [2],13.8 µM
same,GI50,LOX IMVI,1.44 µM
same,TGI,LOX IMVI,2.96 µM
same,CC50,LOX IMVI; [2],6.12 µM
same,GI50,UO-31,0.266 to 0.27 µM
same,TGI,UO-31,1.65 µM
same,CC50,UO-31; [2],35.1 µM
same,GI50,HT-29,1.52 µM
same,TGI,HT-29,3.46 µM
same,CC50,HT-29; [2],7.91 µM
same,GI50,ACHN,0.39 µM
same,TGI,ACHN,1.69 µM
same,CC50,ACHN; [2],51.6 µM
same,GI50,OVCAR-3,0.488 to 0.49 µM
same,TGI,OVCAR-3,1.7 µM
same,CC50,OVCAR-3; [2],4.52 µM
same,GI50,SN12C,0.59 µM
same,TGI,SN12C,2.09 µM
same,CC50,SN12C; [2],32.5 µM
same,GI50,EKVX,1 µM
same,LC50 (concentration killing 50% of cells),EKVX,8.88 µM
same,TGI,EKVX,2.98 µM
same,GI50,HCC 2998,1.53 µM
same,TGI,HCC 2998,3.15 µM
same,CC50,HCC 2998; [2],6.49 µM
same,GI50,DU-145,2.38 µM
same,TGI,DU-145,9.36 µM
same,CC50,DU-145; [2],8.06 µM
same,GI50,T47D,1.48 µM
same,TGI,T47D,5.67 µM
same,CC50,T47D; [2],29.1 µM
same,GI50,SK-MEL-2,1.82 µM
same,TGI,SK-MEL-2,4.24 µM
same,CC50,SK-MEL-2; [2],9.88 µM
same,GI50,HOP-62,1.35 µM
same,TGI,HOP-62,2.88 µM
same,CC50,HOP-62; [2],6.15 µM
same,GI50,HL-60(TB),1.58 µM
same,TGI,HL-60(TB),4.37 µM
same,CC50,HL-60(TB); [2],41.8 µM
same,GI50,RXF 393,2.06 µM
same,TGI,RXF 393,4.78 µM
same,CC50,RXF 393; [2],5.94 µM
same,GI50,NCI-H226,1.8 µM
same,TGI,NCI-H226,3.91 µM
same,CC50,NCI-H226; [2],8.53 µM
same,GI50,SNB-19,0.65 to 0.654 µM
same,TGI,SNB-19,2.16 µM
same,CC50,SNB-19; [2],5.73 µM
same,GI50,OVCAR-4,1.22 µM
same,TGI,OVCAR-4,4.44 µM
same,CC50,OVCAR-4; [2],80.2 µM
same,GI50,Hs-578T,2.65 µM
same,TGI,Hs-578T,6.94 µM
same,CC50,Hs-578T; [2],8.07 µM
same,GI50,SR,1.62 µM
same,TGI,SR,5.97 µM
same,CC50,SR; [2],> 100 µM
same,GI50,M14,1 µM
same,TGI,M14,2.88 µM
same,CC50,M14; [2],8.25 µM
same,inhibition,[1],92.4%
same,GI50,SK-MEL-5,1.62 µM
same,TGI,SK-MEL-5,3.28 µM
same,CC50,SK-MEL-5; [2],6.67 µM
